Experimental data published in ChEMBL document CHEMBL1649463, “Capsular type and antibiotic resistance in Streptococcus agalactiae isolates from patients, ranging from newborns to the elderly, with invasive infections” (2009).
≈ marks a conversion by molar mass, not a printed value.

Test system: Streptococcus agalactiae
Test: Antimicrobial activity against Streptococcus agalactiae clinical isolates by agar dilution method
Format: functional

MIC50	MIC90	SMILES
0.125 µg/mL (≈ 0.358 µM)	0.125 µg/mL (≈ 0.358 µM)	CC1(C)S[C@@H]2[C@H](NC(=O)[C@H](N)c3ccccc3)C(=O)N2[C@H]1C(=O)O [AMPICILLIN]
0.063 µg/mL (≈ 0.148 µM)	≥ 64 µg/mL	CCC[C@@H]1C[C@@H](C(=O)N[C@@H]([C@H]2O[C@H](SC)[C@H](O)[C@@H](O)[C@H]2O)[C@H](C)Cl)N(C)C1 [CLINDAMYCIN]
0.063 µg/mL (≈ 0.188 µM)	0.063 µg/mL (≈ 0.188 µM)	CC1(C)S[C@@H]2[C@H](NC(=O)Cc3ccccc3)C(=O)N2[C@H]1C(=O)O [PENICILLIN G]
0.5 µg/mL (≈ 0.951 µM)	0.5 µg/mL (≈ 0.951 µM)	CN(C)CCn1nnnc1SCC1=C(C(=O)O)N2C(=O)[C@@H](NC(=O)Cc3csc(N)n3)[C@H]2SC1 [CEFOTIAM]
0.016 µg/mL (≈ 0.0471 µM)	0.031 µg/mL (≈ 0.0913 µM)	CC(=N)N1CC[C@H](SC2=C(C(=O)O)N3C(=O)[C@H]([C@@H](C)O)[C@H]3C2)C1
0.063 µg/mL (≈ 0.172 µM)	0.125 µg/mL (≈ 0.342 µM)	CC1(C)S[C@@H]2[C@H](NC(=O)[C@H](N)c3ccc(O)cc3)C(=O)N2[C@H]1C(=O)O [AMOXICILLIN]
2 µg/mL	≥ 64 µg/mL	C[C@H]1COc2c(N3CCN(C)CC3)c(F)cc3c(=O)c(C(=O)O)cn1c23.C[C@H]1COc2c(N3CCN(C)CC3)c(F)cc3c(=O)c(C(=O)O)cn1c23.O [LEVOFLOXACIN]
0.125 µg/mL (≈ 0.167 µM)	≥ 64 µg/mL	CC[C@H]1OC(=O)[C@H](C)[C@@H](O[C@H]2C[C@@](C)(OC)[C@@H](O)[C@H](C)O2)[C@H](C)[C@@H](O[C@@H]2O[C@H](C)C[C@H](N(C)C)[C@H]2O)[C@](C)(OC)C[C@@H](C)C(=O)[C@H](C)[C@@H](O)[C@]1(C)O [CLARITHROMYCIN]
0.063 µg/mL (≈ 0.164 µM)	0.063 µg/mL (≈ 0.164 µM)	C[C@@H](O)[C@H]1C(=O)N2C(C(=O)O)=C(S[C@@H]3CN[C@H](C(=O)N(C)C)C3)[C@H](C)[C@H]12 [MEROPENEM]
0.031 µg/mL (≈ 0.0499 µM)	0.031 µg/mL (≈ 0.0499 µM)	CO/N=C(\C(=O)N[C@@H]1C(=O)N2C(C(=O)OCOC(=O)C(C)(C)C)=C(/C=C\c3scnc3C)CS[C@H]12)c1csc(N)n1 [CEFDITOREN PIVOXIL]
0.031 µg/mL (≈ 0.0681 µM)	0.063 µg/mL (≈ 0.138 µM)	CO/N=C(\C(=O)N[C@@H]1C(=O)N2C(C(=O)O)=C(COC(C)=O)CS[C@H]12)c1csc(N)n1 [CEFOTAXIME]
0.031 µg/mL (≈ 0.0784 µM)	0.063 µg/mL (≈ 0.159 µM)	C=CC1=C(C(=O)O)N2C(=O)[C@@H](NC(=O)/C(=N\O)c3csc(N)n3)[C@H]2SC1
0.032 µg/mL (≈ 0.0436 µM)	≥ 64 µg/mL	CC[C@H]1OC(=O)[C@H](C)[C@@H](O[C@H]2C[C@@](C)(OC)[C@@H](O)[C@H](C)O2)[C@H](C)[C@@H](O[C@@H]2O[C@H](C)C[C@H](N(C)C)[C@H]2O)[C@](C)(O)C[C@@H](C)C(=O)[C@H](C)[C@@H](O)[C@]1(C)O [ERYTHROMYCIN]
